Results: patent US9321722B2, “Bis-indolic derivatives, their uses in particular as antibacterials” (UNIVERSITE JOSEPH FOURIER, priority 2011, dated 2016)

Key:
[1] = test system: S. aureus ATCC 9144; assay: MIC microdilution (Table I-1); assay type: cell-based, Staphylococcus aureus; conditions: Staphylococcus aureus, ATCC9144, read after 18 hours, read-out: MIC
Procedure: (§1) The microdilution method recommended by the Clinical and Laboratory Standard Institute [M07-A8, Vol. 29, N^o 2] was used. The activity of indolic compounds was tested against 29 bacterial strains belonging to 17 different species and 12 different genera (Staphylococcus, Streptococcus, Enterococcus, Listeria, Bacillus, Haemophilus, Escherichia, Klebsiella, Enterobacter, Serratia, Pseudomonas, and Acinetobacter). Bacterial inocula were prepared in Mueller Hinton broth (MH2, bioMerieux, Marcy L'Etoile, France), supplemented with 10% sheep blood for fastidious species (i.e., Streptococcus pneumoniae and Haemophilus influenzae). They were dispensed in 96 well microtiter plates (5×10^5 CFU/ml of final inoculum). Indolic compounds were added to the wells as to obtain two-fold serial concentrations (0.50-128 mg/L of final concentrations). Plates were incubated at 37° C. in ambient air, or at 37° C. in 5% CO2 enriched atmosphere for fastidious species. […] Drug-free cultures served as growth controls. Cultures receiving gentamicin, ciprofloxacin or cefotaxime served as positive controls.

[2] = test system: S. aureus ATCC 33592 (MRSA); assay: MIC microdilution (Table I-1); assay type: cell-based, Staphylococcus aureus; conditions: Staphylococcus aureus, read after 18 hours, read-out: MIC
Procedure: as §1

[3] = test system: S. aureus CIP 103428; assay: MIC microdilution (Table I-1); assay type: cell-based, Staphylococcus aureus; conditions: Staphylococcus aureus, CIP103428, read after 18 hours, read-out: MIC
Procedure: as §1

[4] = test system: S. aureus CIP 65.6; assay: MIC microdilution (Table I-1); assay type: cell-based, Staphylococcus aureus; conditions: Staphylococcus aureus, CIP65, read after 18 hours, read-out: MIC
Procedure: as §1

[5] = test system: S. aureus ATCC 106414 (VISA); assay: MIC microdilution (Table I-1); assay type: cell-based, Staphylococcus aureus; conditions: Staphylococcus aureus, read after 18 hours, read-out: MIC
Procedure: as §1

[6] = test system: S. aureus ATCC 29213; assay: MIC microdilution (Table I-1); assay type: cell-based, Staphylococcus aureus; conditions: Staphylococcus aureus, ATCC29213, read after 18 hours, read-out: MIC
Procedure: as §1

[7] = test system: S. aureus ATCC 6538; assay: MIC microdilution (Table I-1); assay type: cell-based, Staphylococcus aureus; conditions: Staphylococcus aureus, ATCC6538, read after 18 hours, read-out: MIC
Procedure: as §1

[8] = test system: S. aureus CIP 65.25 (MRSA); assay: MIC microdilution (Table I-1); assay type: cell-based, Staphylococcus aureus; conditions: Staphylococcus aureus, read after 18 hours, read-out: MIC
Procedure: as §1

[9] = test system: S. aureus SA-1199B; assay: MIC microdilution (Table I-1); assay type: cell-based, Staphylococcus aureus; conditions: Staphylococcus aureus, SA1199B, 18 h
Procedure: as §1

[10] = test system: HCT116 (human colon tumor); assay: In vitro cytotoxicity; assay type: cell-based; conditions: for inhibition at 10 µM: HCT-116, HCT116, 10^−5 M, read-out: % of cellular growth inhibition; for inhibition at 1 µM: HCT-116, HCT116, 10^−6 M, read-out: % of cellular growth inhibition (converted)
Procedure: (§2) In vitro cytotoxicity was assayed on three cell lines—KB (human mouth carcinoma), MCR5 (human lung fibroblast) and HCT116 (human colon tumor). Results are presented in table III as % of cellular growth inhibition in presence of 10^−5 M and 10^−6 M of the tested bis-indolic derivatives.

[11] = test system: MRC5 (human lung fibroblast); assay: In vitro cytotoxicity; assay type: cell-based; conditions: for inhibition at 10 µM: MRC5, 10^−5 M, read-out: % of cellular growth inhibition; for inhibition at 1 µM: MRC5, 10^−6 M, read-out: % of cellular growth inhibition (converted)
Procedure: as §2

[12] = test system: S. agalactiae (group B) ATCC 12400; assay: MIC microdilution (Table I-1); assay type: cell-based; conditions: Streptococcus agalactiae, ATCC12400, read after 18 hours, read-out: MIC
Procedure: as §1

[13] = test system: Serratia marcescens CIP 103551; assay: MIC microdilution (Table I-1); assay type: cell-based; conditions: CIP103551, read after 18 hours
Procedure: as §1

[14] = test system: Enterobacter cloacae ATCC 13047; assay: MIC microdilution (Table I-1); assay type: cell-based; conditions: ATCC13047, read after 18 hours
Procedure: as §1

[15] = test system: S. aureus ATCC 25923; assay: MIC microdilution (Table I-1); assay type: cell-based; conditions: Staphylococcus aureus, ATCC25923, read after 18 hours
Procedure: as §1

[16] = test system: S. mitis CIP 103335; assay: MIC microdilution (Table I-1); assay type: cell-based; conditions: Streptococcus mitis, CIP103335, read after 18 hours, read-out: MIC
Procedure: as §1

[17] = test system: S. pyogenes (group A) CIP 104226; assay: MIC microdilution (Table I-1); assay type: cell-based; conditions: Streptococcus pyogenes, CIP104226, read after 18 hours, read-out: MIC
Procedure: as §1

[18] = test system: S. pneumoniae ATCC 49619; assay: MIC microdilution (Table I-1); assay type: cell-based; conditions: Streptococcus pneumoniae, ATCC49619, read after 18 hours
Procedure: as §1

[19] = test system: Pseudomonas aeruginosa CIP 5933; assay: MIC microdilution (Table I-1); assay type: cell-based; conditions: CIP5933, read after 18 hours
Procedure: as §1

[20] = test system: Escherichia coli ATCC 25922; assay: MIC microdilution (Table I-1); assay type: cell-based; conditions: ATCC25922, read after 18 hours
Procedure: as §1

[21] = test system: Acinetobacter baumanii ATCC 19606; assay: MIC microdilution (Table I-1); assay type: cell-based; conditions: Acinetobacter baumannii, ATCC19606, read after 18 hours
Procedure: as §1

[22] = test system: Listeria innocua CIP 80.11; assay: MIC microdilution (Table I-1); assay type: cell-based; conditions: CIP80, read after 18 hours, read-out: MIC
Procedure: as §1

[23] = test system: Bacillus subtilis CIP 5262; assay: MIC microdilution (Table I-1); assay type: cell-based; conditions: CIP5262, read after 18 hours, read-out: MIC
Procedure: as §1

[24] = test system: E. faecalis ATCC 29212; assay: MIC microdilution (Table I-1); assay type: cell-based; conditions: Enterococcus faecalis, ATCC29212, read after 18 hours, read-out: MIC
Procedure: as §1

[25] = test system: E. faecium CIP 54.32; assay: MIC microdilution (Table I-1); assay type: cell-based; conditions: Enterococcus faecium, CIP54, read after 18 hours, read-out: MIC
Procedure: as §1

[26] = test system: Haemophilus influenzae ATCC 49766; assay: MIC microdilution (Table I-1); assay type: cell-based; conditions: ATCC49766; Haemophilus influenzae ATCC 49766; read after 18 hours; read-out: MIC
Procedure: as §1

[27] = test system: Klebsiella pneumoniae ATCC 35657; assay: MIC microdilution (Table I-1); assay type: cell-based; conditions: ATCC35657, read after 18 hours, read-out: MIC
Procedure: as §1

[28] = test system: S. pneumoniae ATCC 6303; assay: MIC microdilution (Table I-1); assay type: cell-based, Streptococcus pneumoniae; conditions: Streptococcus pneumoniae, ATCC6303, read after 18 hours, read-out: MIC
Procedure: as §1

CC(C)(C)OC(=O)NCC(NC(=O)C(=O)c1c[nH]c2ccccc12)c1c[nH]c2ccccc12 (centres unmarked) [Compound 2, tert-Butyl(2-(2-(1H-indol-3-yl)-2-oxoacetamido)-2-(1H-indol-3-yl)ethyl)carbamate]
10 ± 0.5%: inhibition at 1 µM [11]
53%: inhibition at 1 µM [10]
100 ± 2%: inhibition at 10 µM [11]
96 ± 1%: inhibition at 10 µM [10]
> 128 µg/mL: MIC [1] | MIC [2] | MIC [3] | MIC [4] | MIC [5] | MIC [6] | MIC [7] | MIC [8] | MIC [9] | MIC [12] | MIC [13] | MIC [14] | MIC [15] | MIC [16] | MIC [17] | MIC [18] | MIC [19] | MIC [20] | MIC [21] | MIC [22] | MIC [23] | MIC [24] | MIC [25] | MIC [26] | MIC [27] | MIC [28]

CC(C)(C)OC(=O)NCC(NC(=O)C(=O)c1c[nH]c2ccc(Br)cc12)c1c[nH]c2ccc(Br)cc12 (centres unmarked) [Compound 4, tert-Butyl(2-(5-bromo-1H-indol-3-yl)-2-(2-(5-bromo-1H-indol-3-yl)-2-oxoacetamido)ethyl) carbamate]
0.8 µg/mL: MIC [1] | MIC [2] | MIC [4] | MIC [5] | MIC [6] | MIC [7]
> 128 µg/mL: MIC [13] | MIC [14] | MIC [19] | MIC [20] | MIC [21] | MIC [27]
58 ± 4%: inhibition at 10 µM [10]
51 ± 9%: inhibition at 10 µM [11]
1.6 µg/mL: MIC [3] | MIC [8] | MIC [9] | MIC [15]
0%: inhibition at 1 µM [10] | inhibition at 1 µM [11]

CC(NC(=O)C(=O)c1c[nH]c2ccc(Br)cc12)c1c[nH]c2ccc(Br)cc12 (centres unmarked) [Compound 5, 2-(5-Bromo-1H-indol-3-yl)-N-(1-(5-bromo-1H-indol-3-yl)ethyl)-2-oxoacetamide]
80 ± 3%: inhibition at 10 µM [10]
2 µg/mL: MIC [4] | MIC [9]
6%: inhibition at 1 µM [11]
32 µg/mL: MIC [17] | MIC [18] | MIC [26] | MIC [28]
1 µg/mL: MIC [1] | MIC [2] | MIC [3] | MIC [5] | MIC [6] | MIC [7] | MIC [8] | MIC [15]
64 µg/mL: MIC [12] | MIC [16] | MIC [22] | MIC [23] | MIC [25]
128 µg/mL: MIC [24]
85 ± 2%: inhibition at 10 µM [11]
10%: inhibition at 1 µM [10]
> 128 µg/mL: MIC [13] | MIC [14] | MIC [19] | MIC [20] | MIC [21] | MIC [27]

O=C(C(=O)N1CCCCC1c1c[nH]c2ccccc12)c1c[nH]c2ccccc12 (centres unmarked) [Compound 6a, 1-(2-(1H-Indol-3-yl)piperidin-1-yl)-2-(1H-indol-3-yl)ethane-1,2-dione]
28 ± 9%: inhibition at 10 µM [11]
> 128 µg/mL: MIC [1] | MIC [2] | MIC [3] | MIC [4] | MIC [5] | MIC [6] | MIC [7] | MIC [8] | MIC [9] | MIC [12] | MIC [13] | MIC [14] | MIC [15] | MIC [16] | MIC [17] | MIC [18] | MIC [19] | MIC [20] | MIC [21] | MIC [22] | MIC [23] | MIC [24] | MIC [25] | MIC [26] | MIC [27] | MIC [28]
0%: inhibition at 1 µM [10] | inhibition at 1 µM [11]
37 ± 6%: inhibition at 10 µM [10]

O=C(C(=O)N1CCOCC1c1c[nH]c2ccccc12)c1c[nH]c2ccccc12 (centres unmarked) [Compound 6b, 1-(3-(1H-Indol-3-yl)morpholino)-2-(1H-indol-3-yl)ethane-1,2-dione]
2%: inhibition at 1 µM [10]
> 128 µg/mL: MIC [1] | MIC [2] | MIC [3] | MIC [4] | MIC [5] | MIC [6] | MIC [7] | MIC [8] | MIC [9] | MIC [12] | MIC [13] | MIC [14] | MIC [15] | MIC [16] | MIC [17] | MIC [18] | MIC [19] | MIC [20] | MIC [21] | MIC [22] | MIC [23] | MIC [24] | MIC [25] | MIC [26] | MIC [27] | MIC [28]
0%: inhibition at 1 µM [11]
21 ± 10%: inhibition at 10 µM [10]
15 ± 11%: inhibition at 10 µM [11]

CC(C)(C)OC(=O)N1CCN(C(=O)C(=O)c2c[nH]c3ccccc23)C(c2c[nH]c3ccccc23)C1 (centres unmarked) [Compound 6c, tert-Butyl 4-(2-(1H-indol-3-yl)-2-oxoacetyl)-3-(1H-indol-3-yl)piperazine-1-carboxylate]
> 128 µg/mL: MIC [1] | MIC [2] | MIC [3] | MIC [4] | MIC [5] | MIC [6] | MIC [7] | MIC [8] | MIC [9] | MIC [12] | MIC [13] | MIC [14] | MIC [15] | MIC [16] | MIC [17] | MIC [18] | MIC [19] | MIC [20] | MIC [21] | MIC [22] | MIC [23] | MIC [24] | MIC [25] | MIC [26] | MIC [27] | MIC [28]
53 ± 3%: inhibition at 10 µM [10]
0%: inhibition at 1 µM [11]
8%: inhibition at 1 µM [10]
6 ± 16%: inhibition at 10 µM [11]
